From US5451573A, “Substituted cyclohexane derivatives for the treatment of diseases” (Hoechst Aktiengesellschaft, priority 1992, dated 1995)
Where two headings read alike, the source gives them in different places.

Tests used:
[1] = biological target: T1, glucose-6-phosphatase system (Rattus norvegicus, UniProt F7EWB7); assay: glucose-6-phosphatase enzyme test in liver microsomes (phosphate released from glucose-6-phosphate); type: biochemical, male Wistar rats; conditions: for IC50: pH 7.0, 20 min room temperature, concentration at which 50 % inhibition is printed, read-out: Concentration [M] giving Inhibition 50 [%]
T1 construct: from tissue; host or cells: liver microsomes of male Wistar rats
T1 sequence (F7EWB7 1-429): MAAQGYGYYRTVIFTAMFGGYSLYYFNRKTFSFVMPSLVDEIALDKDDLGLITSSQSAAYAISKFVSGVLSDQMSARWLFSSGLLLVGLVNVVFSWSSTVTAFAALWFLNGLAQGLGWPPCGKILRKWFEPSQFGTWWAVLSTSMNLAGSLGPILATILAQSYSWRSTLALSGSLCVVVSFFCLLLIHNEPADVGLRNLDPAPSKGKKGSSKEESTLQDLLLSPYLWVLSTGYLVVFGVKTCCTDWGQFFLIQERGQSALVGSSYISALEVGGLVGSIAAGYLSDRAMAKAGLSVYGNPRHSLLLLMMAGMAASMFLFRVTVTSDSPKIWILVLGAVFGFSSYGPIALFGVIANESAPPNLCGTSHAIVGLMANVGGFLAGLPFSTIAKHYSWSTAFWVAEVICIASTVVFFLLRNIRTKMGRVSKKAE
Description: The action of the compounds according to the invention on the glucose-6-phosphatase system was investigated in an enzyme test in liver microsomes.
Fresh liver organs of male Wistar rats were used for the preparation of the microsome fraction containing the glucose-6-phosphatase and processed as described in the literature [Canfield, W. K. and Arion, W. J., J. Biol. Chem. 263, 7458-7460, (1988)]. This microsome fraction can be stored at -70° C. for at least 2 months without significant loss of activity.
The detection of the glucose-6-phosphatase activity was carried out as indicated in the literature (Arion, W. J. in Methods Enzymol. 174, Academic Press 1989, pages 58-67) by determination of the phosphate released from glucose-6-phosphate. 0.1 ml of test mixture contained glucose-6-phosphate (1 mmol/l), the test substance, 0.1 mg of microsome fraction and 100 mmol/l of HEPES buffer (4-(2-hydroxyethyl)piperazine-1-ethanesulfonic acid), pH 7.0. The reaction was started by addition of the enzyme. After 20 min had passed at room temperature, the reaction was stopped by addition of 0.2 ml of phosphate reagent. The sample was incubated at 37° C. for 30 min, and the absorption (A) of the blue color was then measured at 570 nm. The inhibitory activity of the test substance resulted by comparison with a control reaction, which contained no test substance, according to the formula [formula]

glucose-6-phosphatase = conditions: described in the literature; cited from earlier work
lipoxygenase = conditions: M. Nishizawa et al., Chem. Pharm. Bull. 34(3), 1419 (1986); cited from earlier work
[2] = rat liver microsome fraction, glucose-6-phosphate 1 mmol/l
[3] = Concentration 1 × 10^-3 M, rat liver microsome fraction, glucose-6-phosphate 1 mmol/l, pH 7.0, read-out: Inhibition [%]

| IC50 [1, 2] | inhibition at 1000 µM [1, 3] | SMILES | also measured |
| --- | --- | --- | --- |
| 0.00046 M |  | O=C(/C=C/c1c(O)ccc2ccccc12)O[C@@H]1C[C@](O)(C(=O)O)C[C@@H](O)[C@H]1O [Compound 15] |  |
| 0.00078 M |  | O=C(/C=C/c1ccsc1)O[C@@H]1C[C@](O)(C(=O)O)C[C@@H](O)[C@H]1O [Compound 13] |  |
| 0.00023 M |  | O=C(/C=C/c1ccc(O)c(O)c1)O[C@@H]1C[C@](O)(C(=O)O)C[C@@H](O)[C@H]1O [Compound 17, chlorogenic acid] | inhibitor of the glucose-6-phosphatase system (in words) [1]: inhibitors of the glucose-6-phosphatase system; inhibitor of lipoxygenase (in words) (lipoxygenase): inhibitor of lipoxygenase |
| 0.00041 M |  | COc1cc(/C=C/C(=O)O[C@@H]2C[C@](O)(C(=O)O)C[C@@H](O)[C@H]2O)ccc1O [Compound 5] |  |
|  | 30% | O=C(O)C[C@]1(O)C[C@@H](O)[C@@H](O)[C@H](OC(=O)/C=C/c2ccc(O)cc2)C1 [Compound 23] |  |
| 0.00038 M |  | O=C(/C=C/c1cccs1)O[C@@H]1C[C@](O)(C(=O)O)C[C@@H](O)[C@H]1O [Compound 12] |  |
| 0.00068 M |  | O=C(/C=C/c1cc(O)ccc1O)O[C@@H]1C[C@](O)(C(=O)O)C[C@@H](O)[C@H]1O [Compound 3] |  |
| 0.00068 M |  | O=C(/C=C/c1ccc(O)cc1O)O[C@@H]1C[C@](O)(C(=O)O)C[C@@H](O)[C@H]1O [Compound 4] |  |
| 0.001 M | 50% | O=C(/C=C/c1ccc(O)c(F)c1)O[C@@H]1C[C@](O)(C(=O)O)C[C@@H](O)[C@H]1O [Compound 10] |  |
| 0.00031 M |  | O=C(/C=C/c1cccc(O)c1O)O[C@@H]1C[C@](O)(C(=O)O)C[C@@H](O)[C@H]1O [Compound 2] |  |
|  | 20% | COc1sccc1/C=C/C(=O)O[C@@H]1C[C@](O)(C(=O)O)C[C@@H](O)[C@H]1O [Compound 14] |  |
| 0.00068 M |  | COc1ccc(/C=C/C(=O)O[C@@H]2C[C@](O)(C(=O)O)C[C@@H](O)[C@H]2O)cc1OC [Compound 17α] |  |
| 0.00053 M |  | O=C(/C=C/c1cccc(O)c1)O[C@@H]1C[C@](O)(C(=O)O)C[C@@H](O)[C@H]1O [Compound 7] |  |
| 0.00026 M |  | O=C(/C=C/c1ccc(O)cc1)O[C@@H]1C[C@](O)(C(=O)O)C[C@@H](O)[C@H]1O [Compound 8] |  |
| 0.00031 M |  | O=C(/C=C/c1ccc(O)c(O)c1O)O[C@@H]1C[C@](O)(C(=O)O)C[C@@H](O)[C@H]1O [Compound 1] |  |
|  | 20% | O=C(/C=C/c1cccnc1)O[C@@H]1C[C@](O)(C(=O)O)C[C@@H](O)[C@H]1O [Compound 11] |  |
|  | 35% | O=C(/C=C/c1ccc([N+](=O)[O-])cc1)O[C@@H]1C[C@](O)(C(=O)O)C[C@@H](O)[C@H]1O [Compound 16] |  |
| 0.00048 M |  | O=C(/C=C/c1ccccc1O)O[C@@H]1C[C@](O)(C(=O)O)C[C@@H](O)[C@H]1O [Compound 9] |  |
| 0.00046 M |  | COc1ccc(/C=C/C(=O)O[C@@H]2C[C@](O)(C(=O)O)C[C@@H](O)[C@H]2O)cc1O [Compound 6] |  |

Continued, compound first:

| SMILES | IC50 [1, 2] | inhibition at 1000 µM [1, 3] | also measured |
| --- | --- | --- | --- |
| COP(=O)(CC1=C[C@@H](O)[C@@H](O)[C@H](OC(=O)/C=C/c2ccc(O)cc2)C1)OC [Compound 27] |  |  | inhibition at 1000 µM ([1]; pH 7): 15% |
| O=C(O)c1cc(SSc2ccc([N+](=O)[O-])c(C(=O)O)c2)ccc1[N+](=O)[O-] [5,5'-dithiobis-2-nitrobenzoic acid] |  |  | non-specific inhibitor of glucose-6-phosphatase (in words) (glucose-6-phosphatase): non-specific inhibitors of glucose-6-phosphatase |
| O=C(O)CC[C@]1(O)C[C@@H](O)[C@@H](O)[C@H](OC(=O)/C=C/c2ccc(O)cc2)C1 [Compound 24] |  | 45% |  |
| O=C(/C=C/c1ccc(O)cc1)N[C@@H]1CC(C(=O)O)=C[C@@H](O)[C@H]1O [Compound 26] |  | 15% |  |
| O=C(/C=C/c1ccc(O)cc1)O[C@@H]1C[C@](O)(C(=O)O)[C@@H](O)[C@@H](O)[C@H]1O [Compound 20] |  | 30% |  |
| O=C(CCc1ccc(O)cc1)c1c(O)cc(O)cc1O[C@@H]1O[C@H](CO)[C@@H](O)[C@H](O)[C@H]1O [phlorhizin] |  |  | non-specific inhibitor of glucose-6-phosphatase (in words) (glucose-6-phosphatase): non-specific inhibitors of glucose-6-phosphatase |
| O=C(/C=C/c1ccc(O)cc1)O[C@@H]1CC(CP(=O)(O)O)=C[C@@H](O)[C@H]1O [Compound 28] |  | 28% |  |
| O=C(/C=C/c1ccc(O)cc1)O[C@@H]1CC(C(=O)O)=C[C@@H](O)[C@H]1O [Compound 25] | 0.00025 M |  |  |
| S=C=Nc1ccccc1C=Cc1ccccc1N=C=S [2,2'-diisothiocyanatostilbene] |  |  | non-specific inhibitor of glucose-6-phosphatase (in words) (glucose-6-phosphatase): non-specific inhibitors of glucose-6-phosphatase |
| O=C(/C=C/c1ccc(O)cc1)O[C@@H]1C[C@H](C(=O)O)CC[C@H]1O [Compound 22] |  | 20% |  |
| O=C(/C=C/c1ccc(O)cc1)O[C@@H]1C[C@@](O)(C(=O)O)[C@H](O)[C@@H](O)[C@H]1O [Compound 20α] |  | 10% |  |
| O=C(/C=C/c1ccc(O)cc1)O[C@@H]1C[C@H](C(=O)O)C[C@@H](O)[C@H]1O [Compound 21] | 0.00023 M |  |  |
| CC(=O)Oc1ccccc1C=Cc1ccccc1N=C=S [2-isothiocyanato-2'-acetoxystilbene] |  |  | non-specific inhibitor of glucose-6-phosphatase (in words) (glucose-6-phosphatase): non-specific inhibitors of glucose-6-phosphatase |
| O=C(O[C@@H]1C[C@](O)(C(=O)O)C[C@@H](O)[C@H]1O)c1ccc(OCc2ccccc2)cc1 [Compound 18] | 0.00068 M |  |  |
| O=C(O[C@@H]1C[C@](O)(C(=O)O)C[C@@H](O)[C@H]1O)c1ccc(O)cc1 [Compound 19] | 0.00092 M |  |  |
